Assay results reported in patent publication US20210401916A1, “COMPOSITION FOR PREVENTION AND TREATMENT OF MUSCULAR DISEASES OR FOR IMPROVEMENT OF MUSCLE FUNCTION CONTAINING 3,5-DICAFFEOYLQUINIC ACID OR CHRYSANTHEMUM EXTRACT” (Industry-Academic Cooperation Foundation, Yonsei University, priority 2016, published 2021).

Experiments:
Format in all cases: cell-based
myogenin = myogenin mRNA expression (RT-PCR) during L6 myotube differentiation; conditions: L6 muscle cells, 10, 20 or 40 μg/mL during differentiation, FIG. 14
Protocol: (§1) To confirm the muscle differentiation-promoting activity of a Chrysanthemum extract in L6 myoblasts (ATCC), which are muscle cells, the cells were treated with the 30% ethanol extract of Chrysanthemum, prepared in Example 1-(2), at 5, 10 or 20 μg/mL to induced myotube differentiation by the same method as described in Experimental Example 1-(6). RT-PCR was performed with specific primers (Bioneer) by the same method as described in Experimental Example 2, and the result is shown in FIG. 9.
(§2) To confirm muscle protein synthesis-promoting activity by treatment of L6 myoblasts (ATCC), which are muscle cells, with 3,5-dicaffeoylquinic acid, the cells were treated with the 3,5-dicaffeoylquinic acid obtained in Example 2 at 10, 20 or 40 μg/mL, and then mRNA expression levels of MyoD and myogenin were confirmed by the same method as described in Experimental Example 4.

p-mTOR = p-mTOR protein expression (western blot) in TNF-α-treated L6 myotubes; conditions: 1 or 10 μg/mL, 24 hours
Protocol: To confirm the muscle protein expression-increasing activity of a Chrysanthemum extract in L6 myoblasts (ATCC), which are muscle cells, after differentiation by the same method as described in Experimental Example 2, a sample was treated with the 30% ethanol extract of Chrysanthemum prepared in Example 1-(2) at 1 or 10 μg/mL. The samples were treated for 24 hours, and then the cells were dissolved in an NP-40 buffer solution (ELPIS-Biotech) containing a proteinase inhibitor cocktail (Sigma, St. Louis, Mo., USA). The cells dissolved in the buffer solution were transferred to a 1.5 mL tube for centrifugation at 13,000 rpm for 10 minutes, and then only a supernatant was taken. The supernatant obtained previously was quantified by a Bradford method (Bio-Rad Laboratories Inc., Hercules, Calif., USA). The quantified protein was boiled for 5 minutes and isolated by electrophoresis with a 10% SDS-PAGE gel, and then the isolated proteins were transferred to a nitrocellulose membrane. p-mTOR, mTOR, p-4EBP1, 4EBP1, p-P70S6K and P70S6K and an α-tubulin primary antibody were diluted in 2.5% bovine serum albumin (BSA; bioWORLD, Dublin, Ohio, USA) at a ratio of 1:1000, and the proteins which were transferred to a nitrocellulose membrane were reacted at room temperature for 20 hours. […]

SIRT1 = SIRT1 luciferase reporter (pTA-Luc-SIRT1 plasmid) in transfected COS7 cells; conditions: treated at 20, 40 or 60 μg/mL (5 to 60 μg/mL tested), **p<0.01, FIG. 10
Protocol: To confirm an effect of increasing an expression level of SIRT1 by treatment of COS7 cells (ATCC) with a Chrysanthemum extract, COS7 cells (ATCC) were transfected with a pTA-Luc-SIRT1 plasmid (Addgene) by the same method as described in Experimental Example 1-(1). Here, the 95% ethanol extract of Chrysanthemum prepared in Example 1-(2) was treated at 20, 30 or 40 μg/mL, and the result is shown in FIG. 4.
(§3) To confirm an effect of increasing an expression level of SIRT1 by treatment of COS7 cells (ATCC) with 3,5-dicaffeoylquinic acid, the 3,5-dicaffeoylquinic acid obtained in Example 2 was treated at 5, 10, 20, 40 or 60 μg/mL by the same method as described in Experimental Example 1-(4), and the result is shown in FIG. 10.

MuRF-1 = MuRF-1 mRNA expression (RT-PCR) in TNF-α-treated L6 myotubes; conditions: 50 ng/mL TNF-α, 1 or 10 μg/mL, 6 hours
Protocol: (§4) L6 myoblasts (ATCC), which are muscle cells, were added at 1×10^5 cell/mL to a 6-well plate with 10% FBS (Gibco)-containing DMEM (Hyclone). When the cell density reached approximately 80 to 85%, the medium in the well was removed, the cells were treated with 2% HS (Hyclone)-containing DMEM (Hyclone) to induce myotube differentiation. The differentiation was performed for total of 6 days by replacing the medium and a sample with fresh ones every two days. After differentiation, the 30% ethanol extract of Chrysanthemum prepared in Example 1-(2) was dissolved in DMEM (Hyclone) containing 50 ng/mL tumor necrosis factor alpha (TNF-α; PeproTech, Rocky Hills, N.J., USA) at 1 or 10 μg/mL, and used to treat the cells. After 6 hours, total RNA was isolated with a TRIzol reagent (Takara, Shiga, Japan). The isolated total RNA was quantified using a NanoDrop 1000 (Thermo Fisher Scientific Inc.). cDNA was synthesized from 16 μL of the quantified RNA using a Reverse Transcriptase Premix (ELPIS-Biotech, Daejeon, Korea) and a PCR machine (Gene Amp PCR System 2700; Applied Biosystems, Foster City, Calif., USA) under conditions of 42° C. for 55 minutes and 70° C. for 15 minutes. […]

MyoD = MyoD mRNA expression (RT-PCR) during L6 myotube differentiation; conditions: L6 muscle cells, 10, 20 or 40 μg/mL during differentiation, FIG. 14
Protocol: as §1, §2

atrogin-1 = atrogin-1 mRNA expression (RT-PCR) in TNF-α-treated L6 myotubes; conditions: 50 ng/mL TNF-α, 1 or 10 μg/mL, 6 hours
Protocol: as §4

PGC-1α = PGC-1α luciferase reporter (pTA-Luc-PGC-1α plasmid) in transfected COS7 cells; conditions: treated at 5, 10, 20, 40 or 60 μg/mL, **p<0.01, FIG. 11
Protocol: To confirm an effect of increasing an expression level of PGC-1α by treatment of COS7 cells with a Chrysanthemum extract, COS7 cells (ATCC) were transfected with a pTA-Luc-PGC-1α plasmid (Addgene) by the same method as described in Experimental Example 1-(1). Here, 10%, 30%, 50%, 70% and 90% ethanol extracts of Chrysanthemum, which were prepared in Example 1-(2), and the hot water extract of Chrysanthemum, which was prepared in Example 1-(5), were treated at 10 μg/mL.
To confirm an effect of increasing an expression level of PGC-1α by treatment of […] (ATCC) with the 95% ethanol extract of Chrysanthemum, the 95% ethanol extract of Chrysanthemum, prepared in Example 1-(2), was treated at 10 or 40 μg/mL by the same method as described in Experimental Example 1-(2).
as §3, with “PGC-1α” for “SIRT1”, “1-(2),” for “1-(4),”, “11.” for “10.”

O=C(/C=C/c1ccc(O)c(O)c1)O[C@@H]1CC(O)(C(=O)O)C[C@@H](OC(=O)/C=C/c2ccc(O)c(O)c2)C1O (stereo partly drawn) [3,5-dicaffeoylquinic acid, (3R,5R)-3,5-bis[[(E)-3-(3,4-dihydroxyphenyl)prop-2-enoyl]oxy]-1,4-dihydroxycyclohexane-1-carboxylic acid]
mRNA expression level of myogenin (myogenin): increased in a concentration-dependent manner
p-mTOR protein expression level reduced by TNF-α (p-mTOR): increased in a concentration-dependent manner
expression level of SIRT1 (SIRT1): significantly increased
mRNA expression level of MuRF-1 increased by TNF-α (MuRF-1): decreased in a concentration dependent manner
mRNA expression level of MyoD (MyoD): increased in a concentration-dependent manner
mRNA expression level of atrogin-1 increased by TNF-α (atrogin-1): decreased in a concentration dependent manner
expression level of PGC-1α (PGC-1α): significantly increased
